# According to ChEMBL document CHEMBL1201862, “PubChem BioAssay data set” (2004):
# Calls of active or inactive are those of the source.
# What was measured:
# [1] = viability inhibitors of stage V gametocytes – luminescence, dose response (AID 1117278); assay type: functional, cell-based;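 also: gametocytes exposed to compound for 24 hours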
# [2] = viability loss in human Jurkat cells – cell-based, luminescence, cytotoxicity control for P. falciparum gametocyte viability project, dose response (AID 1117277); assay type: functional;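 also: potency reflects loss of cellular ATP meaning fewer viable cells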
# [3] = Counterscreen for […] of the human trace amine associated receptor 1 (TAAR1): Fluorescence-based cell-based high throughput dose response assay to identify nonselective Ga16 agonists.; assay type: functional
# [4] = target: T1, Trace amine-associated receptor 1 (Homo sapiens, UniProt Q96RJ0); assay: Fluorescence-based cell-based high throughput dose response assay to identify antagonists of the human trace amine associated receptor 1 (TAAR1).; assay type: functional
# T1 sequence (Q96RJ0 whole entry): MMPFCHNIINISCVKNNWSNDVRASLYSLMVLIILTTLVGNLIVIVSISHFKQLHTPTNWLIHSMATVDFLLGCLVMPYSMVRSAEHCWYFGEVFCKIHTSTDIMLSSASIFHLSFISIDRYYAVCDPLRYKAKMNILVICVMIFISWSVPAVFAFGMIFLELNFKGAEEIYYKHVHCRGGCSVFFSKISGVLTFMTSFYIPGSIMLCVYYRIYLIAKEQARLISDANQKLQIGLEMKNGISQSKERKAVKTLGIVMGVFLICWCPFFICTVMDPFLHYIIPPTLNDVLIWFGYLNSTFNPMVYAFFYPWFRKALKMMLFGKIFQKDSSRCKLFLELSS
# [5] = Counterscreen for antagonists of the human trace amine associated receptor 1 (hTAAR1): Fluorescence-based cell-based high throughput dose response assay to identify nonselective Ga16 antagonists.; assay type: functional
# [6] = target: T1, Trace amine-associated receptor 1; assay: Counterscreen for antagonists of the human trace amine associated receptor 1 (hTAAR1): Fluorescence-based cell-based high throughput dose response assay to identify TAAR1 Agonists.; assay type: functional
# [7] = Luminescence Cell-Based Dose Retest to Confirm Inhibitors of Cancer Stem Cells. [Related pubchem assays (depositor defined):AID2717, AID2721]; assay type: functional; details: Homo sapiens
# [8] = potency of ADAM10 substrate cleavage blockers – biochemical, QFRET, dose response (AID 743254);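 also: ADAM10 enzyme with the DM2 quenched FRET peptide as substrate; EDANS fluorescence gain as the protease cuts the substrate; inhibitor potency against ADAM10 proteolytic activity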
# [9] = target: Disintegrin and metalloproteinase domain-containing protein 17 (Homo sapiens, UniProt P78536); assay: inhibition of ADAM17 substrate cleavage – biochemical, quenched FRET substrate, counter-screen for ADAM10 exosite inhibitor project, dose response (AID 743253)
# [10] = target: T2, Galanin receptor type 3 (Homo sapiens, UniProt O60755); assay: Fluorescence-based cell-based primary high throughput dose response assay to identify antagonists of the Galanin Receptor 3 (GalR3).; assay type: functional
# T2 sequence (O60755 whole entry): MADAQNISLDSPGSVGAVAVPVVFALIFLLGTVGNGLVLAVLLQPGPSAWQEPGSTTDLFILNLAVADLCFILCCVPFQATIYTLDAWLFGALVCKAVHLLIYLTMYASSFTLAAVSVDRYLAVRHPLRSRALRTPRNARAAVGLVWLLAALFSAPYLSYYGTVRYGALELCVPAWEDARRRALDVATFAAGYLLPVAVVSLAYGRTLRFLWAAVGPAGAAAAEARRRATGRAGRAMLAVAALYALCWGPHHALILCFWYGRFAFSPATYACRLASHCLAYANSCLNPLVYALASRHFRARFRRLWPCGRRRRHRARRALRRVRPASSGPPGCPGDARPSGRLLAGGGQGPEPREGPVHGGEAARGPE
# [11] = cells; assay type: functional, cell-based; details: HEK-CNG
# [12] = target: COUP transcription factor 2 (Homo sapiens, UniProt P24468); assay: Luminescence-based cell-based high throughput dose response assay to identify inhibitors of COUP-TFII (NR2F2).; assay type: functional;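 also: HEK293 cells transiently cotransfected with COUP-TFII expression vector and reporter; luciferase reporter luminescence driven by COUP-TFII from the pX2-168 reporter plasmid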
# [13] = target: fMet-Leu-Phe receptor (Homo sapiens, UniProt P21462); assay: formyl peptide receptor binders – dose response (AID 519); assay type: functional
# [14] = target: Prothrombin (Homo sapiens, UniProt P00734); assay: Thrombin 1536 HTS Dose Response Confirmation. [Related pubchem assays: 1046 (Thrombin 1536 HTS; hits were confirmed in this assay)]; assay type: functional
# [15] = target: Protein Tat (Human immunodeficiency virus type 1 group M subtype B (isolate HXB2)(HIV-1), UniProt P04608); assay type: functional;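 also: tat binding to TAR RNA read out by fluorescence polarization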
# [16] = target: Major prion protein (Homo sapiens, UniProt P04156); assay type: functional, cell-based
# [17] = cells
# [18] = NIH-3T3 fibroblast cytotoxicity, dose response, cytotoxicity control, cell-based, fluorescence, Alamar Blue, secondary assay (AID 2327); assay type: functional;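 also: NIH-3T3 mouse fibroblasts cultured with fluconazole at 8 µg/mL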
# [19] = fluconazole-exposed Candida albicans growth modulators – fluorescence, retest, confirmation (AID 2467); assay type: functional, cell-based
# [20] = Trypanosoma cruzi growth suppression in host cells – NIH3T3 host cells, beta-gal luminescence, confirmation (AID 2044); assay type: functional, cell-based;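 also: intracellular parasites grown in NIH/3T3 mouse fibroblasts as host cells; luminescent beta-galactosidase reporter signal from transgenic T. cruzi replicating inside host cells; inhibitors lower the luminescence signal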
# [21] = NIH3T3 cell viability loss – ATP luminescence, mouse fibroblasts, counter-screen, dose response (AID 2010); assay type: functional, cell-based;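 also: cells exposed to compound for about 90 hours before reading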
# [22] = target: Induced myeloid leukemia cell differentiation protein Mcl-1 (Homo sapiens, UniProt Q07820); assay type: functional
# [23] = target: T3, Carboxy-terminal domain RNA polymerase II polypeptide A small phosphatase 1 (Homo sapiens, UniProt Q9GZU7); assay: CTDSP1 inhibitors, concentration-response, biochemical, absorbance readout, ultra-high-throughput screen actives (AID 540297); assay type: functional
# T3 sequence (Q9GZU7 whole entry): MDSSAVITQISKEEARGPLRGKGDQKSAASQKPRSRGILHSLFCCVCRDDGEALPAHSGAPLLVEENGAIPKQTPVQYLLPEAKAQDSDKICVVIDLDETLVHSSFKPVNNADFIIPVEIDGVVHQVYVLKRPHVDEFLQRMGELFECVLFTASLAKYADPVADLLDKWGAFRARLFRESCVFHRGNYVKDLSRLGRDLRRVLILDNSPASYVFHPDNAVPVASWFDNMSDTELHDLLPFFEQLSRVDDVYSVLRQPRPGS
# [24] = target: T4, Probable nicotinate-nucleotide adenylyltransferase (Staphylococcus aureus (strain N315), UniProt P65502); assay type: functional, Staphylococcus aureus subsp. aureus N315;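 as to IC50 Mean: confirmatory dose-response retesting of NadD inhibitor hits first found in an ultra-high-throughput screen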
# [25] = target: T4, Probable nicotinate-nucleotide adenylyltransferase; assay type: functional, Staphylococcus aureus subsp. aureus N315; details: read-out: IC50_Mean
# [26] = Luminescence-based cell-based high throughput dose response assay to identify activators of the DAF-12 from the parasite S. stercoralis (ssDAF-12).; assay type: functional
# 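For AC50 in this document: cells exposed to compound for roughly 70 hours or longer before luminescence read.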
smiles,measurement,setting,value
CC1CCCCN1C(=O)Cn1c(=O)oc2ccccc21 (centres undefined),IC50,[1],> 109 µM (inactive)
same,IC50,[2],> 83.3 µM (inactive)
CC(C)C[C@H](NC(=O)c1[nH]cnc1C(=O)NCC(=O)OCc1ccccc1)C(=O)OCc1ccccc1,EC50,[3],> 29.9 µM (inactive)
same,IC50,[4],4.32 µM (active)
same,IC50,[5],> 29.9 µM (inactive)
same,EC50,[6],> 29.9 µM (inactive)
COc1ccccc1Nc1ccc(NC(=O)c2cccc([N+](=O)[O-])c2C)cc1,AC50,[7],3.32 µM (active)
same,IC50,[8],15.4 µM (inactive)
same,IC50,[9],> 69.5 µM (inactive)
CC(C)c1ccc(CN2CCN(C(=O)CSc3nnnn3C3CC3)CC2)cc1,IC50,[10],1.34 µM (active)
same,EC50,[11],> 29.9 µM (inactive)
same,IC50,[12],8.28 µM (active)
Cc1cc(N2C(=O)C(O)=C(C(=O)c3ccco3)C2c2cccnc2)no1 (centres undefined),Ki,[13],> 66.7 µM (inactive)
CN1C(=O)/C(=C2\SC(=S)N(C(CCC(=O)O)C(=O)O)C2=O)c2ccccc21 (centres undefined),IC50,[14],> 50 µM (not active)
same,Ki,[13],> 66.7 µM (inactive)
Cc1cc(-c2csc(NC(=O)c3cc4ccccc4o3)n2)c(C)n1C,IC50,[15],> 100 µM (active)
O=C(COc1ccc2ccccc2c1Br)Nc1ccncc1,IC50,[16],10.4 µM (inactive)
same,IC50,[17],> 138 µM (inactive)
O=C(NNc1ccccc1)C(=O)NNS(=O)(=O)c1ccc(CCCl)cc1,EC50,[18],2.67 µM (inconclusive)
same,EC50,[19],> 38 µM (not active)
same,EC50,[20],2 µM (active)
same,EC50,[21],3.48 µM (active)
same,IC50,[8],23.4 µM (inactive)
same,IC50,[9],27 µM (inactive)
Cc1csc(NC(=O)c2cc(-c3ccco3)nc3ccccc23)n1,IC50,[22],4.03 µM (active)
same,IC50,[23],4.76 µM (active)
same,IC50,[24],9.45 µM (active)
same,IC50,[25],18.4 µM (active)
same,IC50,[26],> 67.5 µM (inactive)
